Experimental data as given in patent publication EP0604352B1, “Aryl-substituted heterocyclic compounds” (N[…]/S, priority 1992, dated 1994).

Tests used:
[1] = molecular target: T1, reuptake of dopamine in synaptosomes of rat forebrain (Rattus norvegicus, UniProt P23977); assay: inhibition of reuptake of dopamine (3H-dopamine) in synaptosomes; format: biochemical
T1 construct: from tissue; host or cells: whole forebrain of male Wistar rats (crude synaptosomal supernatant)
Description: Fresh whole forebrain (at 0-4°C) from male Wistar rats (150-200 g) is homogenized in a glass homogenizer with a Teflon pestle in 20 x volumes 0.32M sucrose. The homogenate is centrifuged at 1000 x g (∼ 2900 rpm) for 10 min. The pellet is discarded and the supernatant is used for uptake assays. […] The samples are thoroughly mixed and incubated 10 min at 37°C followed by 2 min at 0°C. After incubation the samples are poured directly onto Whatman GF/C glass fibre filters under suction and immediately washed with 2 x 5 ml ice-cold 0.9% saline (NaCI) buffer. To the filter is added 3 ml of scintillation fluid, and the amount of radioactivity on the filters is determined by conventional liquid scintillation counting.

[2] = tested on: excitatory locomotor and rearing responses; assay: behavioural excitatory locomotor and rearing responses (side effect profile); format: in vivo, rat; settings: for Activity: locomotor and rearing, maximum peak effect, rats
Description: Male SPF wistar rats weighing 200-250g were used for the gross behavioural studies. All rats were transferred the day before the experiments to individual cages made of wire netting (floor area 21 x 27 cm, height 16 cm) at a room temperature of 21-23° C. […] The behavioural elements here classified as rearing (i.e. standing up on the hindlegs) and locomotor activities (i.e. forward running activities) were registered, and the maximum peak effects were classified according to the following rating scale: • 0 = non-existent or very infrequent • + = weak and infrequent • ++ = moderate in intensity and frequency • +++ = very strong, continuous and intense
The degree of locomotor activity was also tested and measured quantitatively in photocell activity cages. For the measurement of this locomotor activity 100 g female rats are used.

[3] = tested on: abnormal stereotyped behaviour; assay: abnormal stereotyped behaviour, high intensity stereotypy (side effect profile); format: in vivo, rat; settings: rats
Description: Backward locomotion may occasionally be observed.

[4] = tested on: haloperidol-induced catalepsy; assay: catalepsy test for antiparkinsonian effects (antagonism of haloperidol-induced catalepsy); format: in vivo; settings: Rattus norvegicus; rats, test substance perorally 1 h before haloperidol 0.25 mg/kg subcutaneously; read-out: Minimum effective dose (peroral administration)
Description: The principle behind the haloperidol catalepsy test relates to the fact that the drug haloperidol (Serenase®) induces a receptor blockade of post synaptic dopamine receptors within the dopamine innervated corpus striatum of the rat brain. Following the blockade of active dopamine neurotransmission of the striatum a state of rigid immobility is induced, during which the rat can be placed in various totally abnormal immobile postures involving the forelegs and the whole body. […] The immobile posture effect induced by haloperidol closely resembles the state of Parkinson's disease in humans, which is due to a deficit of the dopaminergic innervation of the striatal complex (nucleus caudatus, putamen).
The day before testing, the rats weighing 200-250 g are housed 2 and 2 together in standard macrolon cages. […] The testing for the immobile catalepsy syndrome includes 4 tests performed in the following consecutive order: • 1) a vertical wire netting (40x40 cm high).The meshes (openings) of the nettings are approximately 1×2cm. • 2) a horizontal bar 9 cm above the floor • 3) a 9 cm high block (bar) • 4) a 3 cm high block (cork)
The rats were scored for the immobile cataleptic syndrome every 15 min in all 4 tests starting 15 min after the haloperidol injection. The intensity of catalepsy was tested during 10 sec in all tests and evaluated according to a criteria of 10 sec of total immobility for a score of 2.
The rat was placed in the middle of the vertical wire netting, then on the horizontal bar in an extended position with support by both the forelegs on the bar. The rats were then tested, whether or not they were willing to sit with the left or right forelegs placed first on the 9 and then on the 3 cm block for a duration of 10 sec. The maximum score for all 4 tests is thus a total of 8.

[5] = tested on: dopamine releasing properties; assay: dopamine releasing properties

T1 sequence (P23977 whole entry): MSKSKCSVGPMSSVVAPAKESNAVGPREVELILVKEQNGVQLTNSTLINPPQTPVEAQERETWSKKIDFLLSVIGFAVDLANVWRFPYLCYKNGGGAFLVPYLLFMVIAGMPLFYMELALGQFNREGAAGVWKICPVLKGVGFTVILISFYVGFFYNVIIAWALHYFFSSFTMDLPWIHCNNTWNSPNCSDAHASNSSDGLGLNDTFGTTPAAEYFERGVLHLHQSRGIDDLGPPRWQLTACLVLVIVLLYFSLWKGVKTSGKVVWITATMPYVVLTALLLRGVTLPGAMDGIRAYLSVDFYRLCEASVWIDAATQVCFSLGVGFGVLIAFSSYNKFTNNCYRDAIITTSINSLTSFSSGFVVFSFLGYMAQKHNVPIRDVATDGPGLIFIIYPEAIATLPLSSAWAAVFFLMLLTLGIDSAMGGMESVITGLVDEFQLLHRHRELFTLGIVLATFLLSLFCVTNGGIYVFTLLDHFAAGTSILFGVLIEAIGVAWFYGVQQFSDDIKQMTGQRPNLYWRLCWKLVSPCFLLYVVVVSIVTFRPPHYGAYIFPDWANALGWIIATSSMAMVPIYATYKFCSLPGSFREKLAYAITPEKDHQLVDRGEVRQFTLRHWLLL

| SMILES | IC50 [1] | Activity ([2]; 10 mg/kg i.p.) | Activity ([3]; 50 mg/kg i.p.) | minimal effective dose [4] | Activity ([2]; 50 mg/kg i.p.) | Activity ([2]; 100 mg/kg i.p.) | Activity ([3]; 25 mg/kg i.p.) | Activity ([3]; 100 mg/kg p.o.) | dopamine releasing properties [5] | side effects as measured by excitatory locomotor activity and rearing responses as well as by abnormal stereotyped behaviour ([2]; at every relevant dosing level tested) |
| --- | --- | --- | --- | --- | --- | --- | --- | --- | --- | --- |
| CN1[C@H]2CC[C@@H]1[C@H](c1nc(-c3ccccn3)no1)[C@@H](c1ccc(Cl)c(Cl)c1)C2 [(1R,2R,3S)-2-(3-(2-Pyridyl)-1,2,4-oxadiazol-5-yl)-3-(3,4-dichlorophenyl)-tropane] | 115 nM | 0 | + | > 1 mg/kg | – | – | – | – | – | – |
| CN1[C@H]2CC[C@@H]1[C@H](c1nc(-c3cccs3)no1)[C@@H](c1ccc(Cl)c(Cl)c1)C2 [(1R,2R,3S)-2-(3-(2-Thienyl)-1,2,4-oxadiazol-5-yl)-3-(3,4-dichlorophenyl)-tropane] | 200 nM | – | 0 | > 1 mg/kg | 0 | – | – | – | – | – |
| CN1[C@H]2CC[C@@H]1[C@H](c1nc(-c3ccncc3)no1)[C@@H](c1ccc(Cl)c(Cl)c1)C2 [(1R,2R,3S)-2-(3-(4-Pyridyl)-1,2,4-oxadiazol-5-yl)-3-(3,4-dichlorophenyl)-tropane] | 69 nM | 0 | – | 0.25 mg/kg | – | ++ | ++ | + | – | – |
| COC(=O)[C@@H]1[C@@H](c2ccc(F)cc2)C[C@@H]2CC[C@H]1N2C [trans isomer of Win 35,428, (1R,2R,3S)-2-carbomethoxy-3-(4-fluorophenyl)tropane, reference compound] | – | – | – | – | – | – | – | – | essentially free of dopamine releasing properties | essentially or totally devoid of side effects |
